Measured values taken from patent publication US20210254056A1, “IDENTIFICATION AND TARGETED MODULATION OF GENE SIGNALING NETWORKS” (CAMP4 THERAPEUTICS CORPORATION, priority 2017, published 2021).
Where two headings read alike, the source gives them in different places.

System: hepatocytes
Assay: RNA-seq of hepatocytes treated with Phase III failure compounds
Conditions: for significant modulation of expression of disease genes: q≤0.05, genes in the value or listed in the block; for B2M expression, RNA-seq result: gene B2M; for B9D2 expression, RNA-seq result: gene B9D2; for BAAT expression, RNA-seq result: gene BAAT; for BBOX1 expression, RNA-seq result: gene BBOX1; for BBS10 expression, RNA-seq result: gene BBS10; for BCHE expression, RNA-seq result: gene BCHE; for BCKDHB expression, RNA-seq result: gene BCKDHB; for BCKDK expression, RNA-seq result: gene BCKDK; for BCO1 expression, RNA-seq result: gene BCO1; for BCR expression, RNA-seq result: gene BCR; for BLNK expression, RNA-seq result: gene BLNK; for BLOC1S3 expression, RNA-seq result: gene BLOC1S3; for BMPR1A expression, RNA-seq result: gene BMPR1A; for BRAF expression, RNA-seq result: gene BRAF; for BSCL2 expression, RNA-seq result: gene BSCL2; for BTD expression, RNA-seq result: gene BTD; for C4A expression, RNA-seq result: gene C4A; for C9 expression, RNA-seq result: gene C9; for C10orf10 expression, RNA-seq result: gene C10orf10; for C10orf11 expression, RNA-seq result: gene C10orf11; for C15orf41 expression, RNA-seq result: gene C15orf41; for CA2 expression, RNA-seq result: gene CA2; for CA5A expression, RNA-seq result: gene CA5A; for CA12 expression, RNA-seq result: gene CA12; for CAV1 expression, RNA-seq result: gene CAV1; for CCND1 expression, RNA-seq result: gene CCND1; for CD46 expression, RNA-seq result: gene CD46; for CD81 expression, RNA-seq result: gene CD81; for CD320 expression, RNA-seq result: gene CD320; for CDAN1 expression, RNA-seq result: gene CDAN1; for CDH1 expression, RNA-seq result: gene CDH1; for CEP19 expression, RNA-seq result: gene CEP19; for CEP83 expression, RNA-seq result: gene CEP83; for CEP164 expression, RNA-seq result: gene CEP164; for CEP290 expression, RNA-seq result: gene CEP290; for CFB expression, RNA-seq result: gene CFB; for CFHR2 expression, RNA-seq result: gene CFHR2; for CHRM3 expression, RNA-seq result: gene CHRM3; for CIDEC expression, RNA-seq result: gene CIDEC; for CLDN1 expression, RNA-seq result: gene CLDN1; for COG1 expression, RNA-seq result: gene COG1
Method: RNA-seq was performed to determine the effects of the compounds on hepatocytes.
Significance was determined by the criteria of FPKM≥0.5, a log 2(fold-change)≥1, and a […].

[1] = RNA-seq, Phase III failure compounds, hepatocytes, significance: FPKM≥0.5, log 2(fold-change)≥1, q-value≥0.05 (so in the source)

## CC(C)[C@H](O)C(=O)N[C@@H](C)C(=O)N[C@@H]1C(=O)N(C)CCc2ccccc21 [Semagacestat]
[1]
  Number (#) of genes having significantly changed expression: 9
RNA-seq, hepatocytes
  significant modulation of expression of disease genes: significantly (q≤0.05) modulate expression of CYP3A4
hepatocytes
  B2M expression, RNA-seq result: −0.06
  B9D2 expression, RNA-seq result: 0.10
  BAAT expression, RNA-seq result: 0.02
  BBOX1 expression, RNA-seq result: −0.39
  BBS10 expression, RNA-seq result: −0.12
  BCHE expression, RNA-seq result: −0.07
  BCKDHB expression, RNA-seq result: 0.07
  BCKDK expression, RNA-seq result: 0.00
  BCO1 expression, RNA-seq result: −0.09
  BCR expression, RNA-seq result: −0.04
  BLNK expression, RNA-seq result: −0.03
  BLOC1S3 expression, RNA-seq result: −0.02
  BMPR1A expression, RNA-seq result: 0.01
  BRAF expression, RNA-seq result: 0.30
  BSCL2 expression, RNA-seq result: 0.05
  BTD expression, RNA-seq result: −0.02
  C4A expression, RNA-seq result: 0.16
  C9 expression, RNA-seq result: −0.11
  C10orf10 expression, RNA-seq result: 0.01
  C10orf11 expression, RNA-seq result: −0.27
  C15orf41 expression, RNA-seq result: −0.28
  CA2 expression, RNA-seq result: 0.59
  CA5A expression, RNA-seq result: −0.22
  CA12 expression, RNA-seq result: 0.80
  CAV1 expression, RNA-seq result: −0.21
  CCND1 expression, RNA-seq result: −0.14
  CD46 expression, RNA-seq result: −0.05
  CD81 expression, RNA-seq result: −0.02
  CD320 expression, RNA-seq result: −0.04
  CDAN1 expression, RNA-seq result: −0.07
  CDH1 expression, RNA-seq result: 0.01
  CEP19 expression, RNA-seq result: −0.22
  CEP83 expression, RNA-seq result: −0.04
  CEP164 expression, RNA-seq result: −0.01
  CEP290 expression, RNA-seq result: 0.06
  CFB expression, RNA-seq result: −0.07
  CFHR2 expression, RNA-seq result: 0.01
  CHRM3 expression, RNA-seq result: 0.08
  CIDEC expression, RNA-seq result: 0.28
  CLDN1 expression, RNA-seq result: −0.05
  COG1 expression, RNA-seq result: 0.17

## CN[C@@]1(C)[C@@H]2CC[C@@H](C2)C1(C)C.Cl [TC-5214 (R-Mecamylamine hydrochloride), R-Mecamylamine hydrochloride]
RNA-seq of Table 36, FPKM≥0.5, log 2(fold-change)≥1, q-value≤0.05
  significant changes in gene expression: not observed to cause any significant changes in gene expression
RNA-seq, hepatocytes
  significant modulation of expression of disease genes: significantly (q≤0.05) modulate expression of GCSH
  log 2 fold change in expression of GCSH: −1.31

## CN[C@@]1(C)[C@@H]2CC[C@@H](C2)C1(C)C [TC-5214]
  Number (#) of genes having significantly changed expression: 30

## Cn1c(COP(=O)(NCCBr)NCCBr)cnc1[N+](=O)[O-] [TH-302 (Evofosfamide), Evofosfamide]
  Number (#) of genes having significantly changed expression: 28
RNA-seq, hepatocytes
  significant modulation of expression of disease genes: significantly (q≤0.05) modulate expression of the following genes: FAM111B, FGFR2, PKHD1, and RMRP
hepatocytes
  B2M expression, RNA-seq result: 0.16
  B9D2 expression, RNA-seq result: −0.2
  BAAT expression, RNA-seq result: 0.12
  BBOX1 expression, RNA-seq result: 0.35
  BBS10 expression, RNA-seq result: 0.24
  BCHE expression, RNA-seq result: −0.07
  BCKDHB expression, RNA-seq result: −0.17
  BCKDK expression, RNA-seq result: 0.04
  BCO1 expression, RNA-seq result: −0.28
  BCR expression, RNA-seq result: −0.01
  BLNK expression, RNA-seq result: −0.2
  BLOC1S3 expression, RNA-seq result: 0.04
  BMPR1A expression, RNA-seq result: −0.05
  BRAF expression, RNA-seq result: −0.01
  BSCL2 expression, RNA-seq result: −0.03
  BTD expression, RNA-seq result: −0.16
  C4A expression, RNA-seq result: −0.36
  C9 expression, RNA-seq result: 0.16
  C10orf10 expression, RNA-seq result: −0.2
  C10orf11 expression, RNA-seq result: −0.71
  C15orf41 expression, RNA-seq result: 0.08
  CA2 expression, RNA-seq result: 0.11
  CA5A expression, RNA-seq result: −0.1
  CA12 expression, RNA-seq result: 0.32
  CAV1 expression, RNA-seq result: 0.13
  CCND1 expression, RNA-seq result: 0.16
  CD46 expression, RNA-seq result: 0.08
  CD81 expression, RNA-seq result: 0.09
  CD320 expression, RNA-seq result: 0.17
  CDAN1 expression, RNA-seq result: 0.11
  CDH1 expression, RNA-seq result: −0.56
  CEP19 expression, RNA-seq result: −0.02
  CEP83 expression, RNA-seq result: −0.06
  CEP164 expression, RNA-seq result: −0.03
  CEP290 expression, RNA-seq result: 0.16
  CFB expression, RNA-seq result: 0.01
  CFHR2 expression, RNA-seq result: 0.13
  CHRM3 expression, RNA-seq result: −0.58
  CIDEC expression, RNA-seq result: −0.06
  CLDN1 expression, RNA-seq result: −0.05
  COG1 expression, RNA-seq result: 0.12

## CN(C)[C@@H]1C(O)=C(C(N)=O)C(=O)[C@@]2(O)C(O)=C3C(=O)c4c(O)c(NC(=O)CN5CCCC5)cc(F)c4C[C@H]3C[C@@H]12 [TP-434 (Eravacycline), Eravacycline]
  Number (#) of genes having significantly changed expression: 232
RNA-seq, hepatocytes
  significant modulation of expression of disease genes: significantly (q≤0.05) modulate expression
hepatocytes
  B2M expression, RNA-seq result: 0.56
  B9D2 expression, RNA-seq result: 0.16
  BAAT expression, RNA-seq result: −0.52
  BBOX1 expression, RNA-seq result: −0.06
  BBS10 expression, RNA-seq result: 0.05
  BCHE expression, RNA-seq result: 0.12
  BCKDHB expression, RNA-seq result: 0.04
  BCKDK expression, RNA-seq result: −0.23
  BCO1 expression, RNA-seq result: −0.13
  BCR expression, RNA-seq result: −0.17
  BLNK expression, RNA-seq result: −0.18
  BLOC1S3 expression, RNA-seq result: 0.32
  BMPR1A expression, RNA-seq result: −0.06
  BRAF expression, RNA-seq result: 0.03
  BSCL2 expression, RNA-seq result: 1.5
  BTD expression, RNA-seq result: −0.25
  C4A expression, RNA-seq result: −0.38
  C9 expression, RNA-seq result: 0.21
  C10orf10 expression, RNA-seq result: −0.02
  C10orf11 expression, RNA-seq result: 0.56
  C15orf41 expression, RNA-seq result: 0.12
  CA2 expression, RNA-seq result: 0.71
  CA5A expression, RNA-seq result: 0.32
  CA12 expression, RNA-seq result: 0.2
  CAV1 expression, RNA-seq result: 0.34
  CCND1 expression, RNA-seq result: −0.7
  CD46 expression, RNA-seq result: 0.23
  CD81 expression, RNA-seq result: 0.17
  CD320 expression, RNA-seq result: 0.3
  CDAN1 expression, RNA-seq result: −0.27
  CDH1 expression, RNA-seq result: −0.59
  CEP19 expression, RNA-seq result: 0.1
  CEP83 expression, RNA-seq result: −0.15
  CEP164 expression, RNA-seq result: −0.21
  CEP290 expression, RNA-seq result: 0.55
  CFB expression, RNA-seq result: 0.23
  CFHR2 expression, RNA-seq result: 0.4
  CHRM3 expression, RNA-seq result: −0.27
  CIDEC expression, RNA-seq result: −0.79
  CLDN1 expression, RNA-seq result: 0.09
  COG1 expression, RNA-seq result: −0.37

## CO[C@H]1C[C@@H]2CC[C@@H](C)[C@@](O)(O2)C(=O)C(=O)N2CCCC[C@H]2C(=O)O[C@H]([C@H](C)C[C@@H]2CC[C@@H](OC(=O)C(C)(CO)CO)[C@H](OC)C2)CC(=O)[C@H](C)/C=C(\C)[C@@H](O)[C@@H](OC)C(=O)[C@H](C)C[C@H](C)/C=C/C=C/C=C/1C [Temsirolimus]
[1]
  Number (#) of genes having significantly changed expression: 34
RNA-seq, p≤0.05, hepatocytes
  significant modulation of expression of any of the genes analyzed: not observed to significantly modulate expression
RNA-seq, hepatocytes
  effect on disease gene expression: no effect on any disease gene
